# Measurements as given in patent publication US12485079B2, “Compositions and methods relating to pigmentation” (Alastin Skincare, Inc., priority 2020, dated 2025).
# Columns and labels:
# [1] = test system: MITF; assay: In vitro MITF gene expression test in cultured fibroblasts; format: cell-based; details: 48 hours
# Procedure: Microphthalmia-associated transcription factor (MITF) is a master regulator of pigmentation and melanin transfer and a potential new target for hyperpigmentation and melanoma. In vitro MITF gene expression tests were carried out to ascertain differences between individual peptides (tripeptide-1 and hexapeptide-12) and their combination in terms of MITF downregulation.
# Specifically, the tests were conducted by culturing fibroblasts and then adding tripeptide-1, hexapeptide-12, or a combination of both. After 48 hours, MITF gene expression was analyzed.
# [2] = test system: melanocytes (melanin production); assay: In vitro melanocyte comparative analysis via absorbance readings (Example 4); format: cell-based; details: for Absorbance 405 nm / Absorbance 490 nm / Absorbance 492 nm: melanocyte lysates; for regulation of melanogenesis (decrease of absorption = decreased melanin formation): Table 8
# Procedure: Melanocytes were cultured in 6-well plates containing growth media. Once confluent, 2 concentrations of each of the 10 compounds were added to the cells in triplicate wells for 4 days. There were a total of eleven 6-well plates, one for each compound treatment and one for the vehicle control. Absorbance readings were taken on the lysates prepared for each well of the 6-well plates, normalizing for cells counts. […] Additional validation was carried out using MSH addition to media to confirm increased stimulation of melanin production. The following compounds used in this study are seen in Table 7.
# [3] = test system: melanogenic genes; assay: Cell line melanogenic gene activity testing, overall conclusion; format: cell-based, human; details: conclusion over melanocytes, keratinocytes, HUVECs
# Procedure: (§1) Four cell types associated with pigmentation pathways-melanocytes, keratinocytes, fibroblasts and endothelial (HUVEC) cells-were analyzed for gene expression.
# (§2) To simulate the UV stimulatory pigmentation pathway process, melanocytes were pre-treated with PGE2, a normal direct consequence of UV light exposure usually emanating from exposed keratinocytes. After the 48 hour attachment culture, these melanocytes were induced with 10 uM PGE2 in melanocyte media for 24 hrs. The four primary human adult dermal cell lines were cultured and plated in well plates in triplicate and then treated with 11 different compound treatments (plus DMSO control). After 48 hours of attachment culture, the remaining fibroblasts, HUVECs and keratinocytes were treated with the test compounds listed in Table 6.
# (§3) After 24 hours of compound exposure, RNA lysate preparation was carried out and samples were shipped to MedGenome for RNA extraction, library construction and sequencing to 25M paired end 100 bp reads per sample. Library prep and sequencing was completed at MedGenome.
# [4] = test system: melanogenic genes in melanocytes; assay: Gene expression study (RNA sequencing) in PGE2-induced melanocytes; format: cell-based, human
# Procedure: as §1, §2, §3
# [5] = test system: PMEL, tyrosinase genes, MC1/4R, EDNRB, MITF, ERK1/2, JNK, AKT1; assay: Gene expression studies of Example 5; format: cell-based
# Excerpt: The methods similar to Examples 3-4 were used to measure expression of PMEL, tyrosinase genes, MC1/4R, EDNRB, MITF, ERK1/2, JNK, and ANKT1.
# FIGS. 10A-10D illustrates the expression of PMEL (FIG. 10A), Tyrosinase genes (FIG. 10B), MC1/4R (FIG. 10C), and EDNRB (FIG. 10D) after treatment of endothelial cells with lactoferrin (Lacto), peptide derived from lactoferrin (TCV), hexapeptide-12 (Hex12), tripeptide-1 and hexapeptide-12 (TriHex), hexapeptide-11 (Hex11), tranexamic acid (Tran acid) octapeptide (Octa), phosphatidylserine (phos), Cannabidiol (CBD), and all (total).
# MITF is regulated by phosphorylation. Specifically, the MAPK and Akt pathways are known to phosphorylate MITF at certain sites. FIGS. 12A-12C illustrate the expression of ERK1/2 (MAPK3/MAPK1) (FIG. 12A), JNK (FIG. 12B), AKT1 (FIG. 12C) after treatment of endothelial cells with lactoferrin (Lacto), peptide derived from lactoferrin (TCV), hexapeptide-12 (Hex12), tripeptide-1 and hexapeptide-12 (TriHex), hexapeptide-11 (Hex11), octapeptide (Octa), phosphatidylserine (phos), Cannabidiol (CBD), and all (total).
# [6] = test system: hTERT-immortalized dermal melanocytes; assay: Melanocyte assay, daily inspection of morphology and survival (Example 6); details: both concentrations of the compound
# Procedure: (§4) Melanocytes were initially plated in 6-well tissue culture plate (1.5×10^3 cells per well) in melanocyte growth media (Dermal Cell Basal Medium (ATCC® PCS-200-030 supplemented with Melanocyte Growth Kit (ATCC® PCS-200-041). Melanocytes were then expanded into 10 cm tissue culture plates at concentrations recommended by ATCC. The cells appear to fully adhere to the plate/dish while culturing with a webbed morphology. Cells were cultured at 37° C. 5% CO2 incubator.
# (§5) Once the melanocytes were 100% confluent in 6-well plates, the melanocyte growth media was removed and the melanocytes were treated with media containing the above compounds; duplicate wells for each compound/concentration listed above. The duplicate vehicle control wells were fed melanocyte growth media only or melanocyte growth media with DMSO (10 uL per 10 mL melanocyte growth media).
# (§6) The cells were fed the appropriate media for the next 5 days. Each day, the cells were inspected for morphology.
# [7] = test system: hTERT-immortalized dermal melanocytes; details: human
# Procedure: as §4, §5, §6
# [8] = test system: pigmented reconstructed epidermis; details: cited from earlier work
# [9] = test system: carrageenan-induced inflammation; details: rats; cited from earlier work
# [10] = test system: EDN1 and other melanogenic genes in HUVECs; assay: Gene expression study (RNA sequencing) in HUVECs; format: cell-based, human; details: 24 hours of compound exposure
# Procedure: as §1, §2, §3
# [11] = test system: UV-B-induced hyperpigmentation; details: topical application for 4 weeks, mice skin; cited from earlier work
# [12] = test system: SCF, LIF, POMC, endothelin genes, PGE2, NGF in keratinocytes; assay: Gene expression study (RNA sequencing) in keratinocytes; format: cell-based, human; details: 24 hours of compound exposure
# Procedure: as §1, §2, §3
molecule,measurement,setting,value
Tripeptide-1,MITF gene expression,"[1]; 120 xppm Tripeptide, positive = upregulation",1.72
same,MITF gene expression,"[1]; 120 xppm Tripeptide, positive = upregulation, listed as tripeptide-1",+1.72
Hexapeptide-12 [HEX-12],Absorbance 405 nm,[2]; 2.9 ug/mL,1.32
same,Absorbance 490 nm,[2]; 2.9 ug/mL,0.94
same,Absorbance 492 nm,[2]; 2.9 ug/mL,0.64
same,Absorbance 405 nm,[2]; 4.9 ug/mL,0.96
same,Absorbance 490 nm,[2]; 4.9 ug/mL,0.64
same,Absorbance 492 nm,[2]; 4.9 ug/mL,0.46
same,stimulation of melanin production (model validation),[2]; melanocytes,decreased stimulation
same,regulation of melanogenesis (decrease of absorption = decreased melanin formation),[2]; melanocytes,Regulation of melanogenesis was observed
same,effects on melanogenesis activity,[3],significant effects on melanogenesis activity
same,MITF gene expression,"[1]; 80 ppm Hexapeptide, negative = downregulation",−1.16
same,melanogenic activity (FIGS. 3A-3D),"[4]; melanocytes pre-treated with 10 uM PGE2, 24 hours of compound exposure",particularly dominant in melanogenic activity
same,"expression of melanogenic genes (FIG. 4, FIG. 5)","[4]; melanocytes, 24 hours of compound exposure",downregulation of melanogenic genes
same,"melanogenic activity (expression of PMEL, Tyrosinase genes, MC1/4R, EDNRB; FIGS. 10A-10D)",[5]; after treatment of endothelial cells,robust melanogenic activity
same,effects on melanogenic activity (kinase expression linked to decreased MITF expression),[5]; conclusion of Example 5,significant effects
C/C=C1/[C@H](O[C@@H]2O[C@H](CO)[C@@H](O)[C@H](O)[C@H]2O)OC=C(C(=O)OC)[C@H]1CC(=O)OCCc1ccc(O)c(O)c1 [Oleuropein],time post-initial dosing at which melanocytes started dying,[6],24 h
same,time post-initial dosing at which all or nearly all melanocytes were dead,[7],72 h
COc1ccc([C@@H]2CC(=O)c3c(O)cc(O[C@@H]4O[C@H](CO[C@@H]5O[C@@H](C)[C@H](O)[C@@H](O)[C@H]5O)[C@@H](O)[C@H](O)[C@H]4O)cc3O2)cc1O [Hesperidin],skin lightening effect,[8],showed skin lightening effect
"C=C(C)[C@@H]1CCC(C)=C[C@H]1c1c(O)cc(CCCCC)cc1O [CBD, Cannabidiol]","PGE2, nitric oxide (NO), and malondialdehyde production, together with COX activity",[9],reduced
Phosphatidylserine,regulation of melanogenesis (decrease of absorption = decreased melanin formation),[2]; melanocytes,Regulation of melanogenesis was observed
same,effects on melanogenesis activity,[3],significant effects on melanogenesis activity
same,activity on EDN1 and other melanogenic genes (FIG. 9),[10],potent activity
Oc1ccc2c(c1)OCO2 [Sesamol],regulation of melanogenesis (decrease of absorption = decreased melanin formation),[2]; melanocytes,Regulation of melanogenesis was also observed
"O=C(O)c1cc(O)c(O)c(O)c1 [GA, Gallic acid]",UV-B-induced hyperpigmentation,[11],significantly rescued
"NC[C@H]1CC[C@H](C(=O)O)CC1 [Tranexamic Acid, Tranexamic acid, reference compound]",regulation of melanogenesis (decrease of absorption = decreased melanin formation),[2]; melanocytes,Regulation of melanogenesis was also observed
Hexapeptide-11 [HEX-11],"melanogenesis activity (FIGS. 6A-6F, FIG. 7)",[12],active ingredient in melanogenesis activity
same,regulation of melanogenesis (decrease of absorption = decreased melanin formation),[2]; melanocytes,Regulation of melanogenesis was observed
same,effects on melanogenesis activity,[3],significant effects on melanogenesis activity
